The values below come from PMC3866913 (Journal of medicinal chemistry, 2013).

pKd, pKi: −log10 of the molar value. Where two headings read alike, the source gives them in different places. Where only a bound is given, the exact number is not on record here.

The format of series [1] is in vivo. The note with it: mice, i.v.
In the next series the target is α2β2-nAChR (Rattus norvegicus, UniProt P12389+P12390). In words: Heteromeric nAChR binding, transfected HEK293 membranes, [3H]epibatidine.
In series [2] the target is T1, α7-nAChR (Mus musculus, UniProt P49582). In words: Blocking of [18F]7a with non-α7-nAChR CNS drugs in CD-1 mice. Type of series: in vivo. As to conditions: 2 mg/kg, s.c., 10 min before radiotracer, 90 min after tracer.
T1 sequence (P49582 23-502): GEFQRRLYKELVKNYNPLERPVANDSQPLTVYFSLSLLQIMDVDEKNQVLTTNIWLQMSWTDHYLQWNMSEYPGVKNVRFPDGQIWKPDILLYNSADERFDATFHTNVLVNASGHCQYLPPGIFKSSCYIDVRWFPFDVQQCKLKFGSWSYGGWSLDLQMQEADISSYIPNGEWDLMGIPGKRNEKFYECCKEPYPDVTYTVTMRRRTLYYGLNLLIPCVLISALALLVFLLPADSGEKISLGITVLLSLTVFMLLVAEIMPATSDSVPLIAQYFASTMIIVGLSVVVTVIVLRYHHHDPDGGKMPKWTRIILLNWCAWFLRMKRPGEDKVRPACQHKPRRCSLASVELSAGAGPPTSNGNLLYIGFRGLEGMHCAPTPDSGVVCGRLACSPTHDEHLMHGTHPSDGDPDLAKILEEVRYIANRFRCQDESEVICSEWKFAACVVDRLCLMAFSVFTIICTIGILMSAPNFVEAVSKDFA
Series [3] has as its target T1, α7-nAChR. More on the design: species or system CD-1 mice. As to conditions: in vivo.
The target of series [4] is α7-nAChR. As to conditions: read-out: α7-nAChR Ki, cited from earlier work.
For series [5], the target named is T2, α7-nAChR (Rattus norvegicus, UniProt Q05941). In words: biochemical. The series is classed as binding. The note with it: two independent assays, each in duplicate.
T2 sequence (Q05941 23-502): as the sequence (P49582 23-502) above, with T402A counted along it
Series [6] has as its target T1, α7-nAChR. As to conditions: in vivo.
Series [7] has as its target T2, α7-nAChR. The note with it: read-out: KD of radiotracer at α7-nAChR; cited from earlier work.

α2β2-nAChR, sequence (P12389 28-511): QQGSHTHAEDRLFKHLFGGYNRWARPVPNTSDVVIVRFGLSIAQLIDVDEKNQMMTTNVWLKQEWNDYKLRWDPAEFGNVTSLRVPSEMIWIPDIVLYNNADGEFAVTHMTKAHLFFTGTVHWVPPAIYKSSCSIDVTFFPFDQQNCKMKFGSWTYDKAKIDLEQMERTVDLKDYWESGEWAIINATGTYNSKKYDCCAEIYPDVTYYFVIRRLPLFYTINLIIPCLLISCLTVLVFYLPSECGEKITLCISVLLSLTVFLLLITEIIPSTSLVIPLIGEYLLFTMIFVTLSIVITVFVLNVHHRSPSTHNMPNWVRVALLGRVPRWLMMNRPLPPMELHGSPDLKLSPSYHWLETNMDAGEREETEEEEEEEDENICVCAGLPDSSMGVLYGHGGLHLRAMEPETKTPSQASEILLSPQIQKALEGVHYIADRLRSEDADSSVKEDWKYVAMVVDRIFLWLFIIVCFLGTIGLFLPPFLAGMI
α2β2-nAChR, sequence (P12390 25-500): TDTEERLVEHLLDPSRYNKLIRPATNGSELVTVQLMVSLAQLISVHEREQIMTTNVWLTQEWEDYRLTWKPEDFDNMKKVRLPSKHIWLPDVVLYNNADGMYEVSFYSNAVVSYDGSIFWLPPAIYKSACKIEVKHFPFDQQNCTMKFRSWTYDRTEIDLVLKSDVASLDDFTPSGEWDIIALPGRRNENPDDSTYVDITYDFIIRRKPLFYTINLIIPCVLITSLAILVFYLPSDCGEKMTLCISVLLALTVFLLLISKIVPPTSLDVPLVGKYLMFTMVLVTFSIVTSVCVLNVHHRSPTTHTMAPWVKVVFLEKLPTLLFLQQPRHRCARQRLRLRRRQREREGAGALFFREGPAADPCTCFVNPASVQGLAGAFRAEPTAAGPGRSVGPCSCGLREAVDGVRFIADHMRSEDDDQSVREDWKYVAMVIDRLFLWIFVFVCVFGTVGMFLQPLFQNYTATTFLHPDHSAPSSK

For orientation: pKi means the negative decadic logarithm of the Ki, by convention in mol/L. `O=S1(=O)c2cc(N3CCN4CCC3CC4)ccc2-c2cccc(F)c21` [7a, 3-(1,4-Diazabicyclo[3.2.2]nonan-4-yl)-6-fluorodibenzo[b,d]thiophene 5,5-dioxide]: in series [1] (0.3 mg/kg), the “behavioral or locomotor activity changes” value was “Neither behavioral nor locomotor activity changes were observed”. The pKi on α2β2-nAChR (read-out: α2β2 Ki, stably transfected HEK293 cells, [3H]epibatidine 0.5 nM) is < 5.00.
Take `O=S1(=O)c2ccc(F)cc2-c2ccc(N3CCN4CCC3CC4)cc21` [7c, 7-(1,4-Diazabicyclo[3.2.2]nonan-4-yl)-2-fluorodibenzo[b,d]thiophene 5,5-dioxide]: the “behavioral or locomotor activity changes” value in series [1] (0.2 mg/kg) is listed as “Neither behavioral nor locomotor activity changes were observed”.
`O=S1(=O)c2ccccc2-c2c(N3CCN4CCC3CC4)ccc(F)c21` [7e, 1-(1,4-Diazabicyclo[3.2.2]nonan-4-yl)-4-fluorodibenzo[b,d]thiophene 5,5-dioxide]: the pKi on α2β2-nAChR was < 5.00.
In the case of `O=C(Oc1ccc(Br)cc1)N1CCN2CCC1CC2` [compound 1], the “effect on accumulation of [18F]7a in mouse brain regions” value at α7-nAChR [2] is “reduced accumulation of radioactivity”. Besides, the “blockade of [18F]7a binding in mouse brain” value on α7-nAChR [3] was “dose dependent blockade in all regions studied”. In addition, the pKi at α7-nAChR [4] (ref [58]) was 7.66.
`O=S1(=O)c2ccccc2-c2ccc(N3CCN4CCC3CC4)cc21` [compound 5, 3-(1,4-diazabicyclo[3.2.2]nonan-4-yl)dibenzo[b,d]thiophene 5,5-dioxide]: on α7-nAChR [3], the “blockade of [18F]7c accumulation in mouse brain” value is “Dose dependent blockade”. Also, the pKi at α7-nAChR [4] was 10.64.
The molecule `O=S1(=O)c2cc(N3CCN4CCC3CC4)ccc2-c2cccc(I)c21` [compound 14, 3-(1,4-Diazabicyclo[3.2.2]nonan-4-yl)-6-iododibenzo[b,d]thiophene 5,5-dioxide] had a pKi on α7-nAChR [5] of 8.71.
Turning to `O=c1cccc2n1C[C@@H]1CNC[C@H]2C1` [cytisine], at α7-nAChR [6], the “blockade of [18F]7a accumulation in mouse brain” value is “insignificant reduction of radioactivity accumulation in all regions studied”.
The same measure, in the same setting: the entry for `CN1CCC[C@H]1c1cccnc1` [nicotine] is “significant blockade in all regions, except the nAChR-poor cerebellum”.
`Cc1nccn1CC1CCc2c(c3ccccc3n2C)C1=O` (centres unmarked) [ondansetron, Ondansetron]: on α7-nAChR [2], the “effect on accumulation of [18F]7a in mouse brain regions” value is given as “absence of blockade”.
The term pKd denotes the Kd on a negative log10 scale, so that one unit is a factor of ten. For [^125I]α-Bungarotoxin, the negative logarithm of the Kd (pKd) on α7-nAChR [7] is 9.15.
